The text below walks through data of patent publication US12448389B2, “BRM targeting compounds and associated methods of use” (Prelude Therapeutics Incorporated, priority 2020, dated 2025).

One assay concerns the target T1, SMARCA2-HiBiT (Homo sapiens, UniProt P51531).
T1 construct: SMARCA2-HiBiT knock-in Hela monoclonal cell (CS302366); host or cells: HeLa monoclonal knock-in line (CRISPR HiBiT knock-in at the endogenous locus, heterozygous)
Description: SMARCA2 HiBiT degradation assay in HeLa cells. The following applies: 18 hours incubation; for DC50: read-out: HeLa_HiBit-SM2 DC50; for Dmax: HeLa, read-out: HeLa-HiBit-SM2 Dmax (%). It counts as cell-based. Put shortly: (§1)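 HeLa monoclonal lines with heterozygous HiBiT knock-in were seeded at 2500 cells/well in EMEM with 10% FBS and treated with compound for 18 h at 37 °C. Remaining tagged protein was measured by Nano-Glo HiBiT lytic luminescence after 30–60 min at RT, and values came from curve fitting.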
In general terms: With HiBiT, luminescence reflects the tagged protein that the partner subunit can reach.

The target of the next assay is T2, SMARCA4-HiBiT (Homo sapiens, UniProt P51532).
T2 construct: SMARCA4-HiBiT knock-in Hela monoclonal cell (CS3023226); host or cells: HeLa monoclonal knock-in line (CRISPR HiBiT knock-in at the endogenous locus, heterozygous)
T2 sequence (P51532 whole entry): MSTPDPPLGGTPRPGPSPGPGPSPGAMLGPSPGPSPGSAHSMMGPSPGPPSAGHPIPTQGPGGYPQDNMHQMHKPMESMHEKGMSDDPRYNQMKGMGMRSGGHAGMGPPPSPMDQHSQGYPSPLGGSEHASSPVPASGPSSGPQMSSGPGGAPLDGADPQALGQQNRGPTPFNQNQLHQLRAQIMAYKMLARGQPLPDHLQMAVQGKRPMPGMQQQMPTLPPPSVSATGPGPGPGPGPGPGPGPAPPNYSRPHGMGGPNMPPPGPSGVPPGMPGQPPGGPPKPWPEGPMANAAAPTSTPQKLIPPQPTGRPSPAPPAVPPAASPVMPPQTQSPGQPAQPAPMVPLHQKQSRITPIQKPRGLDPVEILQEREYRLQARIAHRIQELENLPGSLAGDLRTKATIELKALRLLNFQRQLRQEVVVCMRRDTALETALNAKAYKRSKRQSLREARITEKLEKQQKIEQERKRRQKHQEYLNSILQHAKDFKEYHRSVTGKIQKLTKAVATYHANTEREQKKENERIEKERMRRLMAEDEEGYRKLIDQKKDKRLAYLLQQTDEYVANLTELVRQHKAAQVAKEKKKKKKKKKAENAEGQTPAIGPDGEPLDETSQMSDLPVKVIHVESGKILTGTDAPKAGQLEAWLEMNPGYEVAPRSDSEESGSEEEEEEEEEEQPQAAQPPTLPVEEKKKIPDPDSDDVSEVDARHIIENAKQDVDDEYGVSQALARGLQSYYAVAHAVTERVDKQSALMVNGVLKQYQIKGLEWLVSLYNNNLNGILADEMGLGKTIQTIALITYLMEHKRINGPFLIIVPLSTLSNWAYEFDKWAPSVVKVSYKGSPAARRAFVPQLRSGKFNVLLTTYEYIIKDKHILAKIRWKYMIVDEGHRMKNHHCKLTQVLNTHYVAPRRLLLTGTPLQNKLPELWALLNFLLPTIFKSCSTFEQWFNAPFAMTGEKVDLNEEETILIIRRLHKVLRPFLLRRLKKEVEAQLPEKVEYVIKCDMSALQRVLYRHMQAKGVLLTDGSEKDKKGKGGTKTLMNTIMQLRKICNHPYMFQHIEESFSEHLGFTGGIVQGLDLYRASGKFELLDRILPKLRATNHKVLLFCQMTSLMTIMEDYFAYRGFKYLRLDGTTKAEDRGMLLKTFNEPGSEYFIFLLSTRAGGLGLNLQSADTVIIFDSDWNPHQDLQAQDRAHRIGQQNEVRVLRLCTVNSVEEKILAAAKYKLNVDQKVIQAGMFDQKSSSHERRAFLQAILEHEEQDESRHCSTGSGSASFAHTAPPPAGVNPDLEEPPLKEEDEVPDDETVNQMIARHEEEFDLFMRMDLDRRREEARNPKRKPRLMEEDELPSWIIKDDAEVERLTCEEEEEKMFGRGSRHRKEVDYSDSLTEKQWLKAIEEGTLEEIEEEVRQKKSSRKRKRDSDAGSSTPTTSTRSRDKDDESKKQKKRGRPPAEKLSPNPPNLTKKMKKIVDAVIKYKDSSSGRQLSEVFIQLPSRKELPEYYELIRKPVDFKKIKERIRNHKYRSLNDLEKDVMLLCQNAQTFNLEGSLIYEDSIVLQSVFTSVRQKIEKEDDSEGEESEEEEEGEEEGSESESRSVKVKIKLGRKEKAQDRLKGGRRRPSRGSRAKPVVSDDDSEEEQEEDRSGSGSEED
Description: SMARCA4 HiBiT degradation assay in HeLa cells. It counts as cell-based. The following applies: 18 hours incubation; for DC50: read-out: HeLa-HiBit-SM4 DC50; for Dmax: HeLa, read-out: HeLa-HiBit-SM4 Dmax (%). Put shortly: as §1

T1 sequence (P51531 whole entry): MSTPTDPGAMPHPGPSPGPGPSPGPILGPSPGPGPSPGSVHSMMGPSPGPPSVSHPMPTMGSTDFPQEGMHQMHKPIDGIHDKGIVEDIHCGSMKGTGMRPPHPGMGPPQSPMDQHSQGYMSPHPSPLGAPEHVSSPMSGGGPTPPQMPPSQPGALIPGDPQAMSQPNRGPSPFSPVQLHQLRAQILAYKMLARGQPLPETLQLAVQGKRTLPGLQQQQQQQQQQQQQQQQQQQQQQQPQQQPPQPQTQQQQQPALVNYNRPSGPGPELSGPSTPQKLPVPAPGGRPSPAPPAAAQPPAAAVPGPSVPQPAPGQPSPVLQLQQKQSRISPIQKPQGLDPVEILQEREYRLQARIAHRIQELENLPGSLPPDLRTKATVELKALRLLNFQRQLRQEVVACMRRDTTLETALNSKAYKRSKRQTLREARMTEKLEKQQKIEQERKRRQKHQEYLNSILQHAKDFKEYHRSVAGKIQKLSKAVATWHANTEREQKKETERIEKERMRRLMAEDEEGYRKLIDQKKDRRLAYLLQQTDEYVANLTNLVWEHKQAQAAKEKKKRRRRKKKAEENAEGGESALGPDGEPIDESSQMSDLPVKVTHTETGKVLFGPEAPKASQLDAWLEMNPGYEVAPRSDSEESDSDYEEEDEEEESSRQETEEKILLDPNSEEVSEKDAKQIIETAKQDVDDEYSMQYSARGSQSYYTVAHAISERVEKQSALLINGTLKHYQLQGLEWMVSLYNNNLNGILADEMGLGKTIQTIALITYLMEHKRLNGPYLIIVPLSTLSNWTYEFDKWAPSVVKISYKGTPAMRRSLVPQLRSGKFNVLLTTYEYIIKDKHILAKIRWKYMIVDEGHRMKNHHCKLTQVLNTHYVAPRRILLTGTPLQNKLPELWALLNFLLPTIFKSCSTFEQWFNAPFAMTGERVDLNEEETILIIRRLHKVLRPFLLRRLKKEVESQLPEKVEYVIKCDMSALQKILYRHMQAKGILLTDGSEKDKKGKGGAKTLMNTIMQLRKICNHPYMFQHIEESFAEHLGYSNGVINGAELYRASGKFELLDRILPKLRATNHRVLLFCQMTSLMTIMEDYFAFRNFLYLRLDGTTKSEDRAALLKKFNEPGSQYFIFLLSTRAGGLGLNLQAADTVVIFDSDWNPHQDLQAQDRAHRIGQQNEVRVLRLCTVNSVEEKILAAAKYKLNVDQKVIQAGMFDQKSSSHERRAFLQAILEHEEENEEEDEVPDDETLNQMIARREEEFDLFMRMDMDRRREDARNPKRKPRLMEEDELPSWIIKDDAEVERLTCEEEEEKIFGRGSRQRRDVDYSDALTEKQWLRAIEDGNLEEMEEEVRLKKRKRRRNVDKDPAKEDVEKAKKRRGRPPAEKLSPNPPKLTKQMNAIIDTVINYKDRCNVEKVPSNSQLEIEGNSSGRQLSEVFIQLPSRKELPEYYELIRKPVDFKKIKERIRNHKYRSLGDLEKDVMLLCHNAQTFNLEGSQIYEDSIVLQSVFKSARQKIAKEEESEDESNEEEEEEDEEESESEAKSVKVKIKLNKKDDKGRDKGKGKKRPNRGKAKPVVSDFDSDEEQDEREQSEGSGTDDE

As usually defined, the DC50 is the concentration giving 50% degradation. Broadly, the Dmax is the greatest extent of degradation seen. In the case of `O=C1CCC(N2C(=O)c3ccc(N4CCC(CN5CCC(C(=O)N6CCN7c8cc(-c9ccccc9O)nnc8NC[C@H]7C6)CC5)C(F)(F)C4)cc3C2=O)C(=O)N1` (stereo partly drawn) [Example 196, 5-[3,3-difluoro-4-[[4-[(10S)-4-(2-hydroxyphenyl)-1,5,6,8,12-pentazatricyclo[8.4.0.02,7]tetradeca-2(7),3,5-trien-12-carbonyl]piperidin-1-yl]methyl]piperidin-1-yl]-2-(2,6-dioxopiperidin-3-yl) isoindole-1,3-dione], at SMARCA2-HiBiT, the 50% degradation concentration (DC50) was less than 10 nM and the Dmax was in the range of 75 to 85%. On SMARCA4-HiBiT, the 50% degradation concentration (DC50) lay in the range of 10 to 100 nM and the greatest degradation seen (Dmax) was in the range of 50 to 75%.
For `CC1CN(c2ccc3c(c2)C(=O)N(C2CCC(=O)NC2=O)C3=O)CCC1CN1C[C@@H]2[C@H](C1)[C@H]2CN1CCN2c3cc(-c4ccccc4O)nnc3NC[C@H]2C1` (stereo partly drawn) [Example 197, 2-(2,6-dioxopiperidin-3-yl)-5-(4-(((1R,5S,6r)-6-(((S)-2-(2-hydroxyphenyl)-5,6,6a,7,9,10-hexahydro-8H-pyrazino[1′,2′:4,5]pyrazino[2,3-c]pyridazin-8-yl)methyl)-3-azabicyclo[3.1.0]hexan-3-yl)methyl)-3-methylpiperidin-1-yl)isoindoline-1,3-dione], at SMARCA2-HiBiT, the half-maximal degradation concentration (DC50) is less than 10 nM and the maximal degradation (Dmax) is greater than 85%. In addition, at SMARCA4-HiBiT, the “HeLa-HiBit-SM4 Dmax (%)” value was “B (B=75%<Dmax<=85%)” and the half-maximal degradation concentration (DC50) is less than 10 nM.
Take `CC1CN(c2ccc3c(c2)C(=O)N(C2CCC(=O)NC2=O)C3=O)CCC1CN1C[C@@H]2[C@H](C1)[C@H]2CN1CCN2c3cc(-c4ccccc4O)nnc3NC[C@H]2C1` (stereo partly drawn) [Example 198, 2-(2,6-dioxopiperidin-3-yl)-5-(4-(((1R,5S,6r)-6-(((S)-2-(2-hydroxyphenyl)-5,6,6a,7,9,10-hexahydro-8H-pyrazino[1′,2′:4,5]pyrazino[2,3-c]pyridazin-8-yl)methyl)-3-azabicyclo[3.1.0]hexan-3-yl)methyl)-3-methylpiperidin-1-yl)isoindoline-1,3-dione]: on SMARCA2-HiBiT, the “HeLa-HiBit-SM2 Dmax (%)” value was “A (A=Dmax>85%)” and the DC50 was less than 10 nM. Also, at SMARCA4-HiBiT, the “HeLa-HiBit-SM4 Dmax (%)” value was “C (C=50%<Dmax<=75%)” and the half-maximal degradation concentration (DC50) is less than 10 nM.
With `O=C1CCC(N2C(=O)c3ccc(N4CC[C@@H](CN5C[C@@H]6[C@H](C5)[C@H]6CN5CCN6c7cc(-c8ccccc8O)nnc7NC[C@H]6C5)[C@H](F)C4)cc3C2=O)C(=O)N1` (stereo partly drawn) [Example 200, 2-(2,6-dioxopiperidin-3-yl)-5-[(3S,4S)-3-fluoro-4-[[(1S,5R)-6-[[(10S)-4-(2-hydroxyphenyl)-1,5,6,8,12-pentazatricyclo [8.4.0.02,7]tetradeca-2(7),3,5-trien-12-yl]methyl]-3-azabicyclo[3.1.0]hexan-3-yl]methyl]piperidin-1-yl]isoindole-1,3-dione], on SMARCA2-HiBiT, the DC50 was less than 10 nM and the greatest degradation seen (Dmax) was 75 to 85%. For the same molecule, on SMARCA4-HiBiT, the “HeLa-HiBit-SM4 Dmax (%)” value is listed as “C (C=50%<Dmax<=75%)” and the DC50 is less than 10 nM.
In the case of `O=C1CCC(N2C(=O)c3ccc(N4CC[C@@H](CN5C[C@@H]6[C@H](C5)[C@H]6CN5CCN6c7cc(-c8ccccc8O)nnc7NC[C@H]6C5)[C@H](F)C4)cc3C2=O)C(=O)N1` (stereo partly drawn) [Example 201, 2-(2,6-dioxopiperidin-3-yl)-5-[(3S,4S)-3-fluoro-4-[[(1S,5R)-6-[[(10S)-4-(2-hydroxyphenyl)-1,5,6,8,12-pentazatricyclo [8.4.0.02,7]tetradeca-2(7),3,5-trien-12-yl]methyl]-3-azabicyclo[3.1.0]hexan-3-yl]methyl]piperidin-1-yl]isoindole-1,3-dione], at SMARCA2-HiBiT, the “HeLa-HiBit-SM2 Dmax (%)” value is reported as “A (A=Dmax>85%)” and the DC50 is less than 10 nM. On SMARCA4-HiBiT, the “HeLa-HiBit-SM4 Dmax (%)” value was “A (A=Dmax>85%)” and the DC50 was less than 10 nM.
For the molecule `O=C1CCC(N2C(=O)c3ccc(N4CC[C@H](CN5CCC(C(=O)N6CCN7c8cc(-c9ccccc9O)nnc8NC[C@H]7C6)CC5)[C@@H](F)C4)cc3C2=O)C(=O)N1` (stereo partly drawn) [Example 202, 2-(2,6-dioxopiperidin-3-yl)-5-[(3R,4R)-3-fluoro-4-[[4-[(10S)-4-(2-hydroxyphenyl)-1,5,6,8,12-pentazatricyclo [8.4.0.02,7]tetradeca-2(7),3,5-trien-12-carbonyl]piperidin-1-yl]methyl]piperidin-1-yl]isoindole-1,3-dione], the figures for the DC50 at SMARCA2-HiBiT and at SMARCA4-HiBiT were less than 10 nM and 10 to 100 nM, respectively. The Dmax at SMARCA2-HiBiT was greater than 85%; at SMARCA4-HiBiT, 75 to 85%.
`O=C1CCC(N2Cc3ccc(N4CC[C@H](CN5C[C@@H]6[C@H](C5)[C@H]6CN5CCN6c7cc(-c8ccccc8O)nnc7NC[C@H]6C5)[C@@H](F)C4)cc3C2=O)C(=O)N1` (stereo partly drawn) [Example 203, 3-(6-((3R,4R)-3-fluoro-4-(((1R,5S,6R)-6-(((S)-2-(2-hydroxyphenyl)-5,6,6a,7,9,10-hexahydro-8H-pyrazino[1′,2′:4,5]pyrazino[2,3-c]pyridazin-8-yl)methyl)-3-azabicyclo[3.1.0]hexan-3-yl)methyl)piperidin-1-yl)-1-oxoisoindolin-2-yl)piperidine-2,6-dione]: the DC50 on SMARCA2-HiBiT and at SMARCA4-HiBiT was less than 10 nM throughout. The greatest degradation seen (Dmax) at SMARCA2-HiBiT and on SMARCA4-HiBiT was greater than 85% in each case.
For `C[C@H]1CN2c3cc(-c4ccccc4O)nnc3NC[C@H]2CN1C[C@H]1[C@@H]2CN(C[C@H]3CCN(c4ccc5c(c4)C(=O)N(C4CCC(=O)NC4=O)C5)C[C@@H]3F)C[C@@H]21` (stereo partly drawn) [Example 204, 3-[5-[(3R,4R)-3-fluoro-4-[[(1S,5R)-6-[[(10S,13S)-4-(2-hydroxyphenyl)-13-methyl-1,5,6,8,12-pentazatricyclo[8.4.0.02,7]tetradeca-2,4,6-trien-12-yl]methyl]-3-azabicyclo[3.1.0]hexan-3-yl]methyl]piperidin-1-yl]-3-oxo-1H-isoindol-2-yl]piperidine-2,6-dione], the results for the 50% degradation concentration (DC50) on SMARCA2-HiBiT and at SMARCA4-HiBiT were less than 10 nM and 10 to 100 nM, respectively. The greatest degradation seen (Dmax) at SMARCA2-HiBiT and on SMARCA4-HiBiT was 75 to 85% throughout.
Regarding `O=C1CCC(N2Cc3ccc(N4CC[C@H](CN5CCN(C(=O)N6CCN7c8cc(-c9ccccc9O)nnc8NC[C@H]7C6)CC5)[C@@H](F)C4)cc3C2=O)C(=O)N1` (stereo partly drawn) [Example 205, 3-[5-[(3R.4R)-3-fluoro-4-[[4-[(10S)-4-(2-hydroxyphenyl)-1,5,6,8,12-pentazatricyclo[8.4.0.02,7]tetradeca-2,4,6-triene-12-carbonyl]piperazin-1-yl]methyl]piperidin-1-yl]-3-oxo-1H-isoindol-2-yl]piperidine-2.6-dione], at SMARCA2-HiBiT, the 50% degradation concentration (DC50) was less than 10 nM and the greatest degradation seen (Dmax) was greater than 85%. Besides, on SMARCA4-HiBiT, the 50% degradation concentration (DC50) was in the range of 10 to 100 nM and the greatest degradation seen (Dmax) is 75 to 85%.
On to `O=C1CCC(N2C(=O)c3ccc(N4CC[C@H](CN5CCN(C(=O)N6CCN7c8cc(-c9ccccc9O)nnc8NC[C@H]7C6)CC5)[C@@H](F)C4)cc3C2=O)C(=O)N1` (stereo partly drawn) [Example 206, 2-(2,6-dioxopiperidin-3-yl)-5-[(3R,4R)-3-fluoro-4-[[4-[(10S)-4-(2-hydroxyphenyl)-1,5,6,8,12-pentazatricyclo [8.4.0.02,7]tetradeca-2(7),3,5-triene-12-carbonyl]piperazin-1-yl]methyl]piperidin-1-yl]isoindole-1,3-dione], for which the 50% degradation concentration (DC50) on SMARCA2-HiBiT was less than 10 nM; at SMARCA4-HiBiT it was 10 to 100 nM. Moreover, the Dmax was greater than 85% on SMARCA2-HiBiT and 50 to 75% on SMARCA4-HiBiT.
Regarding `O=C1CCC(N2Cc3cc(OCCN4CCC(CN5CCN6c7cc(-c8ccccc8O)nnc7NC[C@H]6C5)CC4)ccc3C2=O)C(=O)N1` (stereo partly drawn) [Example 207, 3-(5-(2-(4-(((S)-2-(2-hydroxyphenyl)-5,6,6a,7,9,10-hexahydro-8H-pyrazino[1′,2′:4,5]pyrazino[2,3-c]pyridazin-8-yl)methyl)piperidin-1-yl)ethoxy)-1-oxoisoindolin-2-yl)piperidine-2,6-dione], on SMARCA2-HiBiT, the DC50 was less than 10 nM and the Dmax was 50 to 75%. On SMARCA4-HiBiT, the DC50 was in the range of 10 to 100 nM and the Dmax was no more than 50%.
Take `O=C1CCC(N2Cc3cc(C4CCN(C5CCN(CCCN6CCN7c8cc(-c9ccccc9O)nnc8NC[C@H]7C6)C5)CC4)ccc3C2=O)C(=O)N1` (stereo partly drawn) [Example 208, 3-(5-(1-(1-(3-((S)-2-(2-hydroxyphenyl)-5,6,6a,7,9,10-hexahydro-8H-pyrazino[1′,2′:4,5]pyrazino[2,3-c]pyridazin-8-yl)propyl)pyrrolidin-3-yl)piperidin-4-yl)-1-oxoisoindolin-2-yl)piperidine-2,6-dione]: on SMARCA2-HiBiT, the DC50 was less than 10 nM and the Dmax was 75 to 85%. Besides, at SMARCA4-HiBiT, the 50% degradation concentration (DC50) was less than 10 nM and the Dmax was in the range of 50 to 75%.
In the case of `O=C1CCC(N2Cc3cc(C4CCN(C5CCN(CCCN6CCN7c8cc(-c9ccccc9O)nnc8NC[C@H]7C6)CC5)CC4)ccc3C2=O)C(=O)N1` (stereo partly drawn) [Example 209, 3-(5-(1′-(3-((S)-2-(2-hydroxyphenyl)-5,6,6a,7,9,10-hexahydro-8H-pyrazino[1′,2′:4,5]pyrazino[2,3-c]pyridazin-8-yl)propyl)-[1,4′-bipiperidin]-4-yl)-1-oxoisoindolin-2-yl)piperidine-2,6-dione], on SMARCA2-HiBiT, the DC50 is less than 10 nM and the greatest degradation seen (Dmax) was greater than 85%. For the same molecule, at SMARCA4-HiBiT, the DC50 is less than 10 nM and the Dmax was greater than 85%.
With `O=C1CCC(N2Cc3cc(C4CCN(C5CCCN(CCCN6CCN7c8cc(-c9ccccc9O)nnc8NC[C@H]7C6)C5)CC4)ccc3C2=O)C(=O)N1` (stereo partly drawn) [Example 210, 3-(5-(1′-(3-((S)-2-(2-hydroxyphenyl)-5,6,6a,7,9,10-hexahydro-8H-pyrazino[1′,2′:4,5]pyrazino[2,3-c]pyridazin-8-yl)propyl)-[1,3′-bipiperidin]-4-yl)-1-oxoisoindolin-2-yl)piperidine-2,6-dione], at SMARCA2-HiBiT, the 50% degradation concentration (DC50) was less than 10 nM and the maximal degradation (Dmax) was greater than 85%. At SMARCA4-HiBiT, the 50% degradation concentration (DC50) was less than 10 nM and the greatest degradation seen (Dmax) lay within 75 to 85%.
